# Test results as given in patent publication US20150126467A1, “USE OF ALGINATE OLIGOMERS TO ENHANCE THE EFFECTS OF ANTIFUNGAL AGENTS” (AlgiIPharma AS, priority 2011, published 2015).
# Key:
# [1] = system: C. parapsillosis ATCC 22019T; assay: Robotic MIC assay, Candida strains (Example 2); format: cell-based, Candida parapsilosis; settings: 48 h, Mueller-Hinton broth
# Protocol: A robotic MIC Assay was performed as follows. OligoG CF-5/20 were dissolved in medium (Mueller-Hinton broth or M19 broth depending on experiment) to 1.25 times of the desired assay concentrations (2, 6 and 10%). The antifungal agents under test were dissolved in medium without OligoG CF-5/20 and in medium with OligoG CF-5/20 at a concentration of 1.25 times the highest desired assay concentrations. For experiments where the effect of adding different concentrations of Na^+ was investigated, NaCl was dissolved in medium to the desired concentrations (10, 30 and 50 mM).
# Two-fold serial dilutions of antifungal agents were made in medium with different concentrations of OligoG CF-5/20, and the solutions were placed in four parallel wells in Nunc 384-well micro plates (30 μl per well in Nunc 242757 microplates). A group of 8 wells with no addition of antifungal agents for each OligoG CF-5/20 concentration was included on each microplate as growth reference. To each well in the 384-well assay plates was added 7.5 μl of medium inoculated with a frozen stock culture of Candida albicans (strain CCUG 39343).
# The micro plates were placed in plastic bags and incubated without shaking at 34° C. The optical density at 600 nm in the microwells was measured after approximately 13, 18, 24 and 34 hours of incubation, and the relative growth yield in each well was calculated based on the growth in the reference groups.
# The robotic assay described in Example 1 was employed in this Example. Strains were grown in Mueller-Hinton broth (LAB114 from Lab M Limited) and MIC values (μg ml-1) were determined for each antifungal after incubation for 48 h in the presence of 0, 2, 6 and 10% OligoG CF-5/20 G-fragments. […] OligoG CF-5/20 G-fragments were provided by AlgiPharma AS, Norway.
# Candida strains used were as follows: • C. albicans CCUG 39343 (strain from culture collection) • C. parapsillosis ATCC 22019T (strain from culture collection) • C. krusei 141/03 (candidosis) • C. krusei 249/03(2) (ulceration) • C. lusitaniae 994/01(2) (candidosis) • C. tropicalis 12 (vaginal) • C. tropicalis 75 (vaginal) • C. tropicalis 519468 (urinary) • C. tropicalis 544123 (urinary) • C. tropicalis 250/03 (candidosis) • C. tropicalis AG1 (oral) • C. tropicalis T2.2 (oral)
# [2] = system: Aspergillus fumigatus CCUG 17460; assay: Robotic MIC assay, Aspergillus (Example 4); format: cell-based; settings: A. fumigatus CCUG 17460, 48 hours, Mueller-Hinton broth
# Protocol: (§1) Aspergillus sp. was grown at 30° C. for 96 h on YM-agar. Spores and aerial mycelium was cut out from the agar, suspended in 1 ml YM-broth and dispersed with glass beads (1 mm) in a mini bead beater for 2 min. Glycerol was added to the suspension to 10% and frozen at −80° C.
# (§2) Each batch of frozen stock culture was then characterized in separate growth experiments using Mueller-Hinton broth to determine the minimum amount of inoculum giving satisfactory growth after 48 h under the conditions relevant for the MIC assay. This inoculation procedure is used in order to reduce day to day variation in bioassays.
# (§3) Robotic minimum inhibitory concentration (MIC) assay was performed as follows. OligoG CF-5/20 was dissolved in medium (Mueller-Hinton broth) to 1.25 times of the desired assay concentrations (2, 6 and 10%). […].
# (§4) Two-fold serial dilutions of antifungal agents were made in medium with different concentrations of OligoG CF-5/20, and the solutions were placed in four parallel wells in Nunc 384-well micro plates (30 μl per well in Nunc 242757 microplates). A group of 8 wells with no addition of antifungal agents for each OligoG CF-5/20 concentration was included on each micro plate as growth reference. Each well in the 384-well assay plates was added 7.5 μl of the MH medium inoculated with frozen stock culture of the relevant strains.
# (§5) The microplates were placed in plastic bags and incubated without shaking at 34° C. The optical density at 600 nm in the microwells was measured after approximately 24 and 48 hours of incubation. […]
# [3] = system: Aspergillus flavus CCUG 28296; assay: Robotic MIC assay, Aspergillus (Example 4); format: cell-based; settings: A. flavus CCUG 23451, 48 hours, Mueller-Hinton broth
# Protocol: as §1, §2, §3, §4, §5
# [4] = system: Aspergillus niger CCUG 18919; assay: Robotic MIC assay, Aspergillus (Example 4); format: cell-based; settings: A. niger CCUG 18919, 48 hours, Mueller-Hinton broth
# Protocol: as §1, §2, §3, §4, §5
# [5] = system: C. tropicalis 75 (vaginal); assay: Robotic MIC assay, Candida strains (Example 2); format: cell-based; settings: 48 h, Mueller-Hinton broth
# Summary of the method: (§6)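 Each strain is grown in Mueller-Hinton broth with OligoG CF-5/20 G-fragments (0, 2, 6 or 10%) and two-fold dilutions of antifungal in four replicate wells. After 48 h unshaken at 34° C, MIC is read by OD600.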
# [6] = system: C. tropicalis 519468 (urinary); assay: Robotic MIC assay, Candida strains (Example 2); format: cell-based; settings: 48 h, Mueller-Hinton broth
# Summary of the method: as §6
# [7] = system: C. lusitaniae 994/01(2) (candidosis); assay: Robotic MIC assay, Candida strains (Example 2); format: cell-based; settings: 48 h, Mueller-Hinton broth
# Summary of the method: as §6
# [8] = system: C. tropicalis 250/03 (candidosis); assay: Robotic MIC assay, Candida strains (Example 2); format: cell-based; settings: C. tropicalis 250/03 Candiosis, 48 h, Mueller-Hinton broth
# Summary of the method: as §6
# [9] = system: C. tropicalis T2.2 (oral); assay: Robotic MIC assay, Candida strains (Example 2); format: cell-based; settings: 48 h, Mueller-Hinton broth
# Summary of the method: as §6
# [10] = system: C. krusei 141/03 (candidosis); assay: Robotic MIC assay, Candida strains (Example 2); format: cell-based; settings: 48 h, Mueller-Hinton broth
# Summary of the method: as §6
# C. albicans CCUG 39343 = assay: Robotic MIC assay, Candida strains (Example 2); format: cell-based; settings: 48 h, Mueller-Hinton broth
# Summary of the method: as §6
compound,measurement,setting,value
"C[C@@H]1[C@H](O)[C@@H](C)/C=C/C=C/CC/C=C/C=C/C=C/C=C/C(O[C@H]2O[C@H](C)[C@@H](O)[C@H](N)[C@@H]2O)CC2O[C@](O)(CC(O)C(O)CCC(O)CC(O)CC(O)CC(=O)O[C@H]1C)CC(O)C2C(=O)O (some centres unmarked) [Nystatin, nystatin]",Minimum Inhibitory Concentration (MIC),[1]; 0% OligoG,4 µg/mL
same,Minimum Inhibitory Concentration (MIC),[1]; 2% OligoG,2 µg/mL
same,Minimum Inhibitory Concentration (MIC),[1]; 6% OligoG,1 µg/mL
same,Minimum Inhibitory Concentration (MIC),[1]; 10% OligoG,0.5 µg/mL
same,Minimum Inhibitory Concentration (MIC),[2]; 0% OligoG,8 µg/mL
same,Minimum Inhibitory Concentration (MIC),[2]; 2% OligoG,8 µg/mL
same,Minimum Inhibitory Concentration (MIC),[2]; 6% OligoG,4 µg/mL
same,Minimum Inhibitory Concentration (MIC),[2]; 10% OligoG,2 µg/mL
same,Minimum Inhibitory Concentration (MIC),[3]; 0% OligoG,8 µg/mL
same,Minimum Inhibitory Concentration (MIC),[3]; 2% OligoG,8 µg/mL
same,Minimum Inhibitory Concentration (MIC),[3]; 6% OligoG,4 µg/mL
same,Minimum Inhibitory Concentration (MIC),[3]; 10% OligoG,2 µg/mL
same,Minimum Inhibitory Concentration (MIC),[4]; 0% OligoG,8 µg/mL
same,Minimum Inhibitory Concentration (MIC),[4]; 2% OligoG,4 µg/mL
same,Minimum Inhibitory Concentration (MIC),[4]; 6% OligoG,2 µg/mL
same,Minimum Inhibitory Concentration (MIC),[4]; 10% OligoG,0.5 µg/mL
same,Minimum Inhibitory Concentration (MIC),[5]; 0% OligoG,8 µg/mL
same,Minimum Inhibitory Concentration (MIC),[5]; 2% OligoG,8 µg/mL
same,Minimum Inhibitory Concentration (MIC),[5]; 6% OligoG,8 µg/mL
same,Minimum Inhibitory Concentration (MIC),[5]; 10% OligoG,2 µg/mL
same,Minimum Inhibitory Concentration (MIC),[6]; 0% OligoG,16 µg/mL
same,Minimum Inhibitory Concentration (MIC),[6]; 2% OligoG,8 µg/mL
same,Minimum Inhibitory Concentration (MIC),[6]; 6% OligoG,4 µg/mL
same,Minimum Inhibitory Concentration (MIC),[6]; 10% OligoG,2 µg/mL
same,Minimum Inhibitory Concentration (MIC),[7]; 0% OligoG,8 µg/mL
same,Minimum Inhibitory Concentration (MIC),[7]; 2% OligoG,8 µg/mL
same,Minimum Inhibitory Concentration (MIC),[7]; 6% OligoG,2 µg/mL
same,Minimum Inhibitory Concentration (MIC),[7]; 10% OligoG,1 µg/mL
same,Minimum Inhibitory Concentration (MIC),[8]; 0% OligoG,8 µg/mL
same,Minimum Inhibitory Concentration (MIC),[8]; 2% OligoG,4 µg/mL
same,Minimum Inhibitory Concentration (MIC),[8]; 6% OligoG,2 µg/mL
same,Minimum Inhibitory Concentration (MIC),[8]; 10% OligoG,1 µg/mL
same,Minimum Inhibitory Concentration (MIC),[9]; 0% OligoG,8 µg/mL
same,Minimum Inhibitory Concentration (MIC),[9]; 2% OligoG,8 µg/mL
same,Minimum Inhibitory Concentration (MIC),[9]; 6% OligoG,4 µg/mL
same,Minimum Inhibitory Concentration (MIC),[9]; 10% OligoG,2 µg/mL
same,Minimum Inhibitory Concentration (MIC),[10]; 0% OligoG,8 µg/mL
same,Minimum Inhibitory Concentration (MIC),[10]; 2% OligoG,4 µg/mL
same,Minimum Inhibitory Concentration (MIC),[10]; 6% OligoG,2 µg/mL
same,Minimum Inhibitory Concentration (MIC),[10]; 10% OligoG,2 µg/mL
same,Minimum Inhibitory Concentration (MIC),C. albicans CCUG 39343; 0% OligoG,8 µg/mL
same,Minimum Inhibitory Concentration (MIC),C. albicans CCUG 39343; 2% OligoG,8 µg/mL
same,Minimum Inhibitory Concentration (MIC),C. albicans CCUG 39343; 6% OligoG,4 µg/mL
same,Minimum Inhibitory Concentration (MIC),C. albicans CCUG 39343; 10% OligoG,2 µg/mL
